Reference: article PMC3617124 (Nature chemical biology, 2012)

Assays:
MCL-1ΔNΔC = MCL-1ΔNΔC (Homo sapiens, UniProt Q07820); test: competitive FPA, MCL-1ΔNΔC; format: binding; conditions: even at 50-μM dosing
BFL-1/A1ΔC = target: T1, BFL-1/A1ΔC (Homo sapiens, UniProt Q16548); test: competitive FPA, BFL-1/A1ΔC; format: binding; conditions: even at 50-μM dosing
T1 sequence (Q16548 1-153 limits assumed): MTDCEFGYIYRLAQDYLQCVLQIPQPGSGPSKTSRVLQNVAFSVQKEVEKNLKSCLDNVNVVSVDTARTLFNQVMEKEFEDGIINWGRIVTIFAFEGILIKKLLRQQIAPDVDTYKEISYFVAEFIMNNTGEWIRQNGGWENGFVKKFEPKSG

Bax^−/− Bak^−/− MEFs = test: cell viability assay; format: cell-based, mouse; conditions: 24 h, CellTiter-Glo
BAKΔC = test: competitive FPA, BAKΔC; format: binding
BCL-XLΔC = BCL-XLΔC (Homo sapiens, UniProt Q07817); test: competitive FPA, BCL-XLΔC; format: binding; conditions: even at 50-μM dosing
Chain of BCL-XLΔC (Q07817 1-212 limits assumed, stated change not applied): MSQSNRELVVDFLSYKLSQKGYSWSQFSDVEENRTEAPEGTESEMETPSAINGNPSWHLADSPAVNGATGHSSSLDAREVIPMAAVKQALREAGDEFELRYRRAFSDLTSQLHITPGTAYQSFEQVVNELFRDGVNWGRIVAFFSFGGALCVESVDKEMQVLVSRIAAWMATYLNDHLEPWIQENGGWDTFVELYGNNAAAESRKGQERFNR

Bax^−/− MEFs = test: cell viability assay; format: cell-based, mouse; conditions: 24 h, CellTiter-Glo
Bak^−/− MEFs [1] = test: mitochondrial cytochrome c release; format: cell-based, mouse; conditions: 15 h, supernatant and pellet western blot
Bak^−/− MEFs [2] = test: cell viability assay; format: cell-based, mouse; conditions: 24 h, CellTiter-Glo
Bax^−/− and Bak^−/− MEFs = test: apoptotic response to standard proapoptotic stimuli; format: cell-based, mouse

Chain of MCL-1ΔNΔC (Q07820 172-327, stated change not applied): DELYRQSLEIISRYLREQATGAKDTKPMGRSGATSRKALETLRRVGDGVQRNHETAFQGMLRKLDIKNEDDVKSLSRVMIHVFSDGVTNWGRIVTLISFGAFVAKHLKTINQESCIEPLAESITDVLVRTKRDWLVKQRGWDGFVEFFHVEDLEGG

In the case of `CCOc1ccccc1NN=C1C(=O)N(c2nc(-c3ccccc3)cs2)N=C1C` [BAM7, 4-(2-(2-ethoxyphenyl) hydrazono)-3-methyl-1-(4-phenylthiazol-2-yl)-1H-pyrazol-5(4H)-one], the “competitive binding interaction with MCL-1ΔNΔC” value (MCL-1ΔNΔC) is reported as “little to no”, the “competitive binding interaction with BFL-1/A1ΔC” value (BFL-1/A1ΔC) is reported as “little to no” and the “viability of Bax−/− Bak−/− MEFs” value (Bax^−/− Bak^−/− MEFs) is reported as “did not affect the viability”. The “competitive binding interaction with BAKΔC” value (BAKΔC; even at 50-μM dosing) was “little to no”, the “competitive binding interaction with BCL-XLΔC” value (BCL-XLΔC) was “little to no” and the “viability of Bax−/− MEFs” value (Bax^−/− MEFs) was “no effect”. For the same compound, the “mitochondrial cytochrome c release” value (Bak^−/− MEFs [1]) was “dose-responsive mitochondrial cytochrome c release” and the “viability of Bak−/− MEFs” value (Bak^−/− MEFs [2]) was “dose- and time-responsively impaired the viability”.
For `CC[C@H](C)[C@H](NC(C)=O)C(=O)N[C@@H](Cc1c[nH]c2ccccc12)C(=O)N[C@H](C(=O)N[C@@H](C)C(=O)N[C@@H](CCC(N)=O)C(=O)N[C@@H](CCC(=O)O)C(=O)N[C@@H](CC(C)C)C(=O)N[C@@H](CCCNC(=N)N)C(=O)N[C@@]1(C)CCCC=CCCC[C@@](C)(C(=O)N[C@@H](Cc2ccccc2)C(=O)N[C@@H](CC(N)=O)C(=O)N[C@@H](C)C(=O)N[C@@H](Cc2ccc(O)cc2)C(=O)N[C@@H](Cc2ccc(O)cc2)C(=O)N[C@@H](C)C(=O)N[C@@H](CCCNC(=N)N)C(=O)N[C@@H](CCCNC(=N)N)C(N)=O)NC(=O)[C@H](CC(=O)O)NC(=O)CNC(=O)[C@H]([C@@H](C)CC)NC1=O)[C@@H](C)CC` [BIM SAHB, reference compound], the IC50 (BAKΔC; read-out: IC50, competition with FITC–BIM SAHB for BAKΔC, competitive FPA) was 827 nM.
`COc1cc([C@@H]2c3cc4c(cc3[C@@H](O[C@@H]3O[C@@H]5CO[C@@H](C)O[C@H]5[C@H](O)[C@H]3O)[C@H]3COC(=O)[C@H]23)OCO4)cc(OC)c1O` [etoposide] was tested, and the “apoptotic response in Bax−/− versus Bak−/− MEFs” value (Bax^−/− and Bak^−/− MEFs) was “equivalent apoptotic response”.
`CN[C@@H]1C[C@H]2O[C@@](C)([C@@H]1OC)n1c3ccccc3c3c4c(c5c6ccccc6n2c5c31)C(=O)NC4` [staurosporine] was tested, and the “apoptotic response in Bax−/− versus Bak−/− MEFs” value (Bax^−/− and Bak^−/− MEFs) was “equivalent apoptotic response”.
